# Patent US20240174618A1, “SUBSTITUTED (2-HETEROARYLOXYPHENYL)SULFONATES, SALTS THEREOF AND THEIR USE AS HERBICIDAL AGENTS” (Bayer Aktiengesellschaft, priority 2021, published 2024)
# Assays:
# Assay type in all cases: in vivo
# [1] = test system: Lolium rigidum (LOLRI); assay: A. Herbicidal pre-emergence efficacy, LOLRI
# How it was run: (§1)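 Applied before emergence onto covering soil at rates of 1280 g/ha or less, using 600 L/ha spray water with 0.5% additive. Scoring: visual % efficacy after ~3 weeks, greenhouse.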
# [2] = test system: Triticum aestivum (TRZAS); assay: F. Post-emergence effect on useful plants, TRZAS; conditions: useful plant
# How it was run: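 Visual efficacy rating versus untreated plants, from 0% (no effect) to 100% (plants died), made about 3 weeks after post-emergence treatment. Formulated compounds (WP or EC, 0.5% additive, 600 l/ha water) were sprayed onto greenhouse-grown crops at the one-leaf stage, 2-3 weeks after sowing.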
# [3] = test system: Digitaria sanguinalis (DIGSA); assay: A. Herbicidal pre-emergence efficacy, DIGSA; conditions: scored visually after about 3 weeks vs untreated controls
# How it was run: as §1
# [4] = test system: Polygonum convolvulus (POLCO); assay: C. Herbicidal pre-emergence efficacy, POLCO; conditions: scored after about 3 weeks
# Description: (§2) Seeds of monocotyledonous and dicotyledonous weed plants and crop plants were placed in plastic or organic planting pots and covered with soil. The compounds of the invention, formulated in the form of wettable powders (WP) or as emulsion concentrates (EC), were then applied to the surface of the covering soil as aqueous suspension or emulsion with addition of 0.5% additive at a water application rate equivalent to 600 l/ha (converted). After the treatment, the pots were placed in a greenhouse and kept under good growth conditions for the test plants. After about 3 weeks, the efficacy of the preparations was scored visually in comparison with untreated controls as percentages. For example, • 100% efficacy=plants have died, • 0% efficacy=like untreated control plants.
# (§3) Tables C1a to C14b below show the effects of selected compounds of the general formula (I) according to table 1 on various harmful plants at an application rate corresponding to 320 g/ha or less, which were obtained by the experimental procedure mentioned above.
# [5] = test system: Kochia scoparia (KCHSC); assay: C. Herbicidal pre-emergence efficacy, KCHSC
# How it was run: (§4)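 Pre-emergence test: formulated compounds sprayed as aqueous suspension or emulsion with 0.5% additive at 600 l/ha onto soil covering sown seeds, at rates corresponding to 320 g/ha or less. After about 3 weeks in greenhouse, efficacy scored visually as percent versus untreated controls (100% = plants dead).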
# [6] = test system: Lolium rigidum (LOLRI); assay: C. Herbicidal pre-emergence efficacy, LOLRI; conditions: scored after about 3 weeks
# Description: as §2, §3
# [7] = test system: Kochia scoparia (KCHSC); assay: A. Herbicidal pre-emergence efficacy, KCHSC
# How it was run: as §1
# [8] = test system: Abutilon theophrasti (ABUTH); assay: E. Herbicidal post-emergence efficacy, ABUTH
# How it was run: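 Compounds applied at 320 g/ha or less as a foliar spray (600 l/ha, 0.5% additive) to one-leaf-stage greenhouse plants grown in sandy loam. Damage is visually scored in percent relative to untreated plants after about 3 weeks.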
# [9] = test system: Veronica persica (VERPE); assay: C. Herbicidal pre-emergence efficacy, VERPE; conditions: scored after about 3 weeks
# How it was run: as §4
# [10] = 80 g/ha, scored visually after about 3 weeks vs untreated controls
# [11] = pre-emergence, dosage 1280 g/ha
Compound,Pre-emergence efficacy against LOLRI ([1]; dosage 320 g/ha) [%],Pre-emergence efficacy against LOLRI ([1]; dosage 1280 g/ha) [%],Post-emergence efficacy against TRZAS in % ([2]; application rate 80 g/ha) [%],Post-emergence efficacy against TRZAS in % ([2]; application rate 320 g/ha) [%],Pre-emergence efficacy against DIGSA ([3]; 80 g/ha) [%],Pre-emergence efficacy against DIGSA ([3]; 320 g/ha) [%],Pre-emergence efficacy against DIGSA ([3]; 1280 g/ha) [%],Pre-emergence efficacy against POLCO ([4]; 80 g/ha) [%],Pre-emergence efficacy against POLCO ([4]; 320 g/ha) [%],Pre-emergence efficacy against KCHSC in % ([5]; application rate 80 g/ha) [%],Pre-emergence efficacy against KCHSC in % ([5]; application rate 320 g/ha) [%],Pre-emergence efficacy against LOLRI ([6]; 320 g/ha) [%],"Pre-emergence efficacy against KCHSC [7, 10] [%]","Pre-emergence efficacy against KCHSC ([7]; pre-emergence, dosage 320 g/ha) [%]","Pre-emergence efficacy against KCHSC [7, 11] [%]",Post-emergence efficacy against ABUTH in % ([8]; application rate 320 g/ha) [%],Pre-emergence efficacy against VERPE ([9]; 80 g/ha) [%],Pre-emergence efficacy against VERPE ([9]; 320 g/ha) [%],Post-emergence efficacy against ABUTH in % ([8]; application rate 80 g/ha) [%],Pre-emergence efficacy against LOLRI ([6]; 80 g/ha) [%]
C=CCCS(=O)(=O)Oc1c(F)cccc1Oc1ncc(Cl)cn1 [Example I-50],90,90,0,10,90,90,100,80,90,90,100,100,90,100,100,,,,,
O=S(=O)(CC1CC1)Oc1ccccc1Oc1ncc(Cl)cn1 [Example I-23],90,90,0,,90,100,100,100,100,,,100,90,100,100,90,100,100,,
"CC(C)CS(=O)(=O)Oc1ccccc1Oc1ncc(Cl)cn1 [Example I-7, [2-(5-Chloropyrimidin-2-yl)oxyphenyl] 2-methylpropane-1-sulfonate]",,90,20,,,,,90,100,,,90,90,100,100,100,90,100,,
O=S(=O)(CCCCCl)Oc1ccccc1Oc1ncc(Cl)cn1 [Example I-15],,90,,,,,,80,100,,,80,100,100,100,80,,80,,
O=S(=O)(CCC(F)(F)F)Oc1ccccc1Oc1ncc(Cl)cn1 [Example I-8],90,90,20,,,,,90,90,,,100,100,100,100,100,100,100,90,
CCCS(=O)(=O)Oc1ccccc1Oc1ncc(Cl)cn1 [Example I-3],100,100,0,10,,,,,100,,,90,100,100,100,,,100,,
O=S(=O)(CCCCl)Oc1ccccc1Oc1ncc(F)cn1 [Example I-5],,,20,,,,,90,100,,,80,100,100,100,90,100,100,,
CCCCS(=O)(=O)Oc1ccccc1Oc1ncc(Cl)cn1 [Example I-6],90,90,,,,,,90,90,,,100,90,90,100,90,80,90,80,80
O=S(=O)(CCCC(F)(F)F)Oc1ccccc1Oc1ncc(Cl)cn1 [Example I-10],90,90,,,,,,90,100,,,100,100,100,100,100,100,100,90,90
O=S(=O)(CCCCl)Oc1c(F)cccc1Oc1ncc(Cl)cn1 [Example I-14],100,100,20,,100,100,100,90,100,,,100,100,100,100,90,100,100,,
O=S(=O)(CCCCl)Oc1ccccc1Oc1ncc(Cl)cn1 [Example I-2],90,100,0,,,,,90,100,,,100,100,100,100,100,90,100,,
